Test results published in patent US20140121185A1 (Medicon Pharmaceuticals, Inc., priority 2012, published 2014).
One block for each compound: values may come before it.

Legend:
AsPC-1 = assay: Pancreatic cancer cell growth, 24 h; type: cell-based, human; settings: AsPC-1, escalating concentrations
Method: (§1) Cell growth was determined in the human pancreatic cancer cell lines AsPC-1, CFPAC-1, Capan-2, Panc-1 and MIA PaCa-2 after treatment with escalating concentrations of P-FTS 35 for 24 h.

CFPAC-1 = assay: Pancreatic cancer cell growth, 24 h; type: cell-based, human; settings: CFPAC-1, escalating concentrations
Method: as §1

Capan-2 = assay: Pancreatic cancer cell growth, 24 h; type: cell-based, human; settings: Capan-2, escalating concentrations
Method: as §1

MIA PaCa-2 = assay: Pancreatic cancer cell growth, 24 h; type: cell-based, human; settings: MIA PaCa-2, escalating concentrations
Method: as §1

Panc-1 = assay: Pancreatic cancer cell growth, 24 h; type: cell-based, human; settings: Panc-1, escalating concentrations
Method: as §1

MIA PaCa-2 cells = assay: Pancreatic cancer xenograft model in nude mice; type: in vivo; settings: for reduction of tumor volume growth: day 25
Method: The in vivo chemotherapeutic potential of P-FTS 35 was assessed using a pancreatic cancer xenograft model. MIA PaCa-2 cells were injected subcutaneously into the flank areas of nude mice. When palpable tumors were observed, the mice received P-FTS 35, 50 or 100 mg/kg/d by oral gavage in corn oil or just corn oil (control) for 25 days. On day 25 of treatment, P-FTS 35, 50 mg/kg/d, and P-FTS 35, 100 mg/kg/d reduced the tumor volume growth by 62% and 65%, respectively (p<0.05; FIG. 5).

[1] = 3-week oral toxicity in BALB/c mice; type: in vivo
Method: The toxicity of P-FTS 35 in mice was further examined. Groups of 6 week-old female BALB/c mice (5 mice/group) were given by oral gavage once a day for 3 weeks P-FTS 35: 0, 75, 150, 250 and 350 mg/kg. […] The (sub-chronic) maximum tolerated dose of P-FTS 35 (3-wk period of observation) was determined to be at least 350 mg/kg/d.

Ras [2] = assay: Ras-GTP pull down assay in Panc-1 cells; type: cell-based, human; settings: 24 h
Excerpt: (§2) In the following experiments it was examined whether the pancreatic cancer growth inhibitory effect of P-FTS 35 is associated with down regulation of Ras signaling. For this purpose, we used the Ras-GTP pull down assay.

[3] = system: RAF/MEK/ERK and PI3K/AKT pathways; assay: Immunoblots of Ras downstream effectors in Panc-1 cells; type: cell-based, human
Excerpt: C: Immunoblots of p-c-RAF, c-RAF, p-MEK, MEK, p-AKT and AKT in whole cell protein extracts from Panc-1 cells treated with P-FTS 35 as indicated. Loading control: β-actin.
as §2

Ras [4] = assay: Ras-GTP pull down assay in lysates from MIA PaCa-2 xenografts; type: in vivo, nude mice; settings: compared to controls
Method: (§3) The inhibition of Ras by P-FTS 35 was further confirmed in vivo. The Ras-GTP pull down assay was used to test the capacity of P-FTS 35 to inhibit active Ras in fresh protein lysates from MIA PaCa-2 xenografts. Compared to controls, P-FTS 35, 50 and 100 mg/kg reduced RAS activation in xenografts by 62% and 70%, respectively (p<0.01, for both; FIG. 8A).

p-ERK and p-AKT = assay: Immunoblotting of MIA PaCa-2 xenografts; type: in vivo, nude mice
Method: B: Immunoblots of p-ERK, ERK, p-AKT and AKT in whole cell protein extracts from MIA PaCa-2 xenografts. Loading control: β-actin.
as §3

p-c-RAF = assay: Immunostaining of xenograft tissue sections; type: in vivo, nude mice; settings: compared to control
p-ERK1/2 = assay: Immunostaining of xenograft tissue sections; type: in vivo, nude mice; settings: compared to control
Method: C: Growth of xenograft tumors treated without or with P-FTS 35 and stained for p-ERK expression. The percentage of p-ERK positive cells/field were determined and expressed as the mean±SEM (*P<0.03).
as §3

[5] = Tolerated dose in mice (PA, ASA); type: in vivo
Method: The ability of phospho-aspirin (PA) to prevent breast cancer (BC) was evaluated using MDA-MB-231 human BC cells xenografted into one of the mammary glands of nude mice (orthotopic xenografts). PA was administered orally, 120 mg/kg/d 1 wk prior to inoculating the cells (the standard prevention protocol); acetylsalicylic acid (ASA) was given at an equimolar dose of 40 mg/kg/d. This was the highest dose of ASA that these mice could tolerate on a long-term basis. The dose of PA represents <10% of its maximum tolerated dose (MTD≧1,600 mg/kg), but was chosen so that a comparison between PA and ASA was possible.

[6] = Levels of PA and metabolites in blood and xenografts by HPLC; type: in vivo, mice; settings: for metabolites detected in plasma and xenograft tumors: mice treated with PA or ASA
Method: The levels of PA and some of its metabolites in blood and xenografts from these mice were determined by HPLC according to the methods described by G. Xie et al. (Br J Pharmacol. 2012; 167(1):222-32).

CYP 2C19 = CYP 2C19 (Homo sapiens, UniProt P33261); assay: Metabolism by recombinant human CYP isoforms; type: in vitro ADME; settings: recombinant human CYP 25 pmol/ml, 37° C., NADPH-regenerating solution
Sequence of CYP 2C19 (P33261 whole entry, canonical isoform): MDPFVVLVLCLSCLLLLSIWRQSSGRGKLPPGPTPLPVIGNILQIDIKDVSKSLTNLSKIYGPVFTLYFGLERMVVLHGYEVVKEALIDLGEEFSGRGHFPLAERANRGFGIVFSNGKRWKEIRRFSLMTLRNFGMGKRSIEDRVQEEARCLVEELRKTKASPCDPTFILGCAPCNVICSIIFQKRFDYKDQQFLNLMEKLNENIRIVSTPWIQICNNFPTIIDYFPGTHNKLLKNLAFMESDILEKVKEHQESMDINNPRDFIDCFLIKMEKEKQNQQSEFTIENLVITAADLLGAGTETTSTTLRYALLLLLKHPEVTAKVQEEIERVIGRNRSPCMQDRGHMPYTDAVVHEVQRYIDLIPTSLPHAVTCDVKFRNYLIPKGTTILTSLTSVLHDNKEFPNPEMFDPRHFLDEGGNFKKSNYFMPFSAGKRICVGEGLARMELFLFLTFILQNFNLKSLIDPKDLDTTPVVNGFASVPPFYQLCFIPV

CYP 2D6 = CYP 2D6 (Homo sapiens, UniProt P10635); assay: Metabolism by recombinant human CYP isoforms; type: in vitro ADME; settings: recombinant human CYP 25 pmol/ml, 37° C., NADPH-regenerating solution
Sequence of CYP 2D6 (P10635 whole entry, canonical isoform): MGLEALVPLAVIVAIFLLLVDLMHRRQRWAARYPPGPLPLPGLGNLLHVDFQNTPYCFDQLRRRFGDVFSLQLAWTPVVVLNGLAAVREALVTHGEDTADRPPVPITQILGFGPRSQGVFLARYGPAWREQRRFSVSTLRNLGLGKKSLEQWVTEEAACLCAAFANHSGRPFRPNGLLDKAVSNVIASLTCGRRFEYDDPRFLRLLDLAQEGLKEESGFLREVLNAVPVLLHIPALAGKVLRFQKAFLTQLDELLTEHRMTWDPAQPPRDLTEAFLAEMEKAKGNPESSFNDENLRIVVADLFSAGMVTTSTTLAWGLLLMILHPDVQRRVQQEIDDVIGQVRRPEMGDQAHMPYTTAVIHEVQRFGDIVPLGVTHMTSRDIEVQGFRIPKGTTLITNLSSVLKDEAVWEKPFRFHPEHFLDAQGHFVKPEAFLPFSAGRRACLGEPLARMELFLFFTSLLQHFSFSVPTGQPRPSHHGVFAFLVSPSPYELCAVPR

CYP 1A2 = CYP 1A2 (Homo sapiens, UniProt P05177); assay: Metabolism by recombinant human CYP isoforms; type: in vitro ADME; settings: recombinant human CYP 25 pmol/ml, 37° C., NADPH-regenerating solution
Sequence of CYP 1A2 (P05177 whole entry, canonical isoform): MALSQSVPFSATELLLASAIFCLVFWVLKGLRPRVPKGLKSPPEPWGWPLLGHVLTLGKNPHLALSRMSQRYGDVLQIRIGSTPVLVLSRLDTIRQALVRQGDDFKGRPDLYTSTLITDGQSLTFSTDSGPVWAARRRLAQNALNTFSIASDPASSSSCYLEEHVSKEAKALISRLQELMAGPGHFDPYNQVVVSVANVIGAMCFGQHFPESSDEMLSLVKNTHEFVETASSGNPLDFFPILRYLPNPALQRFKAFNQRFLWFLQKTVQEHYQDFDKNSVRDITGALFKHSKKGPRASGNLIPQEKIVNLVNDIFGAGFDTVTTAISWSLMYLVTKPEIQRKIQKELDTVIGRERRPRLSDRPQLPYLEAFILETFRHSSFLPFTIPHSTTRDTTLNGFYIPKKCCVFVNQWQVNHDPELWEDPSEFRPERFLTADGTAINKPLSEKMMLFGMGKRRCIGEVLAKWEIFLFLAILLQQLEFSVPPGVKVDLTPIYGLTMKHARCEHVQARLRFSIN

CYP 2C9 = CYP 2C9 (Homo sapiens, UniProt P11712); assay: Metabolism by recombinant human CYP isoforms; type: in vitro ADME; settings: recombinant human CYP 25 pmol/ml, 37° C., NADPH-regenerating solution
Sequence of CYP 2C9 (P11712 whole entry, canonical isoform): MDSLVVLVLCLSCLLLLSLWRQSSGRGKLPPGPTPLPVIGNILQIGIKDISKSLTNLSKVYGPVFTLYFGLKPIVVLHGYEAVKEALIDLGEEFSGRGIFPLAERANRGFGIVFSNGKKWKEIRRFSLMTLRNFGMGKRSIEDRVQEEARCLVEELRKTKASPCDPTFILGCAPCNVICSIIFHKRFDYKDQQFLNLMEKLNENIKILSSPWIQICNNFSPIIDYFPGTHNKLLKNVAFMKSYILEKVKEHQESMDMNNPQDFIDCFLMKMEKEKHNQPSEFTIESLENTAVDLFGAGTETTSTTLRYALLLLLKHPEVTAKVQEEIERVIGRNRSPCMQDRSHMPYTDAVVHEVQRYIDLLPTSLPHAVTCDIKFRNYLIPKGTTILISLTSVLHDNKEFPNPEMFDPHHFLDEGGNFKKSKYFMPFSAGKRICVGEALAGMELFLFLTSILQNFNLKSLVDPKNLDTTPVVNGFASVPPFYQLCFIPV

CYP 3A4 = CYP 3A4 (Homo sapiens, UniProt P08684); assay: Metabolism by recombinant human CYP isoforms; type: in vitro ADME; settings: recombinant human CYP 25 pmol/ml, 37° C., NADPH-regenerating solution
Sequence of CYP 3A4 (P08684 whole entry, canonical isoform): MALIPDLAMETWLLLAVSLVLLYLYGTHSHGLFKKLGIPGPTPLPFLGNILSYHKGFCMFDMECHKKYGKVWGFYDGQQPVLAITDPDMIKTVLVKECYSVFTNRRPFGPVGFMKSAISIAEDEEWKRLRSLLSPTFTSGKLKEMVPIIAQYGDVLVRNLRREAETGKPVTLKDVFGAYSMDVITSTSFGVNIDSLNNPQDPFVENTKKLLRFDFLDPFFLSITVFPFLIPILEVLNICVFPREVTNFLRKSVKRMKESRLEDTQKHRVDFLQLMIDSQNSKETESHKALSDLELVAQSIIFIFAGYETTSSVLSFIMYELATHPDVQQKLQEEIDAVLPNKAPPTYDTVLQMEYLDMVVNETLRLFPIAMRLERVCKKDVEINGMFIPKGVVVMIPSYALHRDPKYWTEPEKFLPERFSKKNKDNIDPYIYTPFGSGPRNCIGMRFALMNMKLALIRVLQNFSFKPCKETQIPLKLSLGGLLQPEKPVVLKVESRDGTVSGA

liver microsomes [7] = system: liver microsomes
[8] = system: MDA-MB-231 human BC cells; assay: Prevention of orthotopic MDA-MB-231 breast cancer xenografts in nude mice; type: in vivo; settings: PA 120 mg/kg/d orally, from 1 wk prior to inoculating the cells
liver microsomes [9] = assay: Metabolism in liver microsomes (HPLC)
[10] = cited from earlier work

SMILES: CCOP(=O)(OCC)OCCCCOC(=O)c1ccccc1SC/C=C(\C)CC/C=C(\C)CCC=C(C)C
- cell growth, % control (AsPC-1): decreases pancreatic cancer cell growth in a concentration-dependent manner
- cell growth, % control (CFPAC-1): decreases pancreatic cancer cell growth in a concentration-dependent manner
- cell growth, % control (Capan-2): decreases pancreatic cancer cell growth in a concentration-dependent manner
- cell growth, % control (MIA PaCa-2): decreases pancreatic cancer cell growth in a concentration-dependent manner
- cell growth, % control (Panc-1): decreases pancreatic cancer cell growth in a concentration-dependent manner
- reduction of tumor volume growth (MIA PaCa-2 cells; 50 mg/kg/d oral gavage in corn oil): 62%
- reduction of tumor volume growth (MIA PaCa-2 cells; 100 mg/kg/d oral gavage in corn oil): 65%
- tolerability in the efficacy study (MIA PaCa-2 cells; 50 or 100 mg/kg/d, 25 days): well tolerated
- weight loss or other signs of toxicity in the efficacy study (MIA PaCa-2 cells; 50 or 100 mg/kg/d, 25 days): no weight loss or other signs of toxicity
- weight loss or other signs of toxicity ([1]; 75, 150, 250 and 350 mg/kg oral gavage once a day for 3 weeks, female BALB/c mice): no weight loss or other signs of toxicity
- MTD at 3 weeks ([1]; female, BALB/c, mouse, in vivo, 3-wk period of observation, oral gavage, read-out: (sub-chronic) maximum tolerated dose): ≥ 350 mg/kg/day
- decrease of Ras-GTP compared with the parent compound (FTS) (Ras [2]; 50 μM): more pronounced
- inhibition of active Ras (Ras-GTP) (Ras [2]): significantly inhibited active Ras (Ras-GTP) in a concentration-dependent manner
- inhibition of the RAF/MEK/ERK and PI3K/AKT pathways [3]: significant time-dependent inhibition
- reduction of RAS activation in xenografts (Ras [4]; 50 mg/kg): 62%
- reduction of RAS activation in xenografts (Ras [4]; 100 mg/kg): 70%
- p-ERK and p-AKT in xenografts by immunoblotting (p-ERK and p-AKT): inhibition of p-ERK and p-AKT
- reduction of expression of p-c-RAF (p-c-RAF): 73%
- reduction of expression of p-ERK1/2 (p-ERK1/2): 71%

SMILES: CC(=O)Oc1ccccc1C(=O)O [ASA, acetylsalicylic acid]
- highest dose that these mice could tolerate on a long-term basis ([5]; nude mice): 40 mg/kg/day
- metabolites detected in plasma and xenograft tumors [6]: Only salicylic acid (SA) was detected
- oxidation (conversion of PSA to 5-OH-PSA) by CYP 2C19 (CYP 2C19): cannot be oxidized
- oxidation (conversion of PSA to 5-OH-PSA) by CYP 2D6 (CYP 2D6): cannot be oxidized
- oxidation by CYP 1A2 (CYP 1A2): cannot be oxidized
- oxidation by CYP 2C9 (CYP 2C9): cannot be oxidized
- oxidation by CYP 3A4 (CYP 3A4): cannot be oxidized
- oxidation by liver microsomes (liver microsomes [7]): not appreciably oxidized

SMILES: CCOP(=O)(OCC)OCCCCOC(=O)c1ccccc1OC(C)=O [PA, phospho-aspirin]
- average tumor volume reduced compared to controls [8]: 62%
- treated mice that had no tumors ([8]; of the 20 treated mice): 20%
- treated mice that had tumors <100 mm^3 ([8]; of the 20 treated mice): 30%
- maximum tolerated dose (MTD) ([5]; mice): ≥ 1,600 mg/kg
- intact PA in plasma or xenografts ([6]; mice treated with PA 120 mg/kg/d, HPLC): No intact PA in either plasma or xenografts was detected
- metabolites detected in plasma and xenograft tumors [6]: Only salicylic acid (SA) was detected
- difference in SA levels between PA and ASA groups ([6]; plasma and xenografts): no difference in SA levels
- major metabolites detected in liver microsomes (liver microsomes [9]; HPLC): phospho-salicylic acid [PSA], 3-OH-PSA and 5-OH-PSA
- deacetylation in liver microsomes (liver microsomes [9]; PA-treated liver microsomes): readily deacetylated

- oxidation by liver microsomes (liver microsomes [7]): not appreciably oxidized
SMILES: O=C(O)c1ccccc1O [SA, salicylic acid]

SMILES: CC1=C(CC(=O)O)c2cc(F)ccc2/C1=C\c1ccc([S+](C)[O-])cc1 (stereo not drawn) [sulindac]
- gastrointestinal side effects, share of patients [10]: up to 20%
- skin rash and pruritus, share of patients [10]: 5%
